From US20230150952A1, “TYPE 2 RYANODINE RECEPTOR ACTIVITY INHIBITOR” (JUNTENDO EDUCATIONAL FOUNDATION, priority 2020, published 2023) come the findings set out here.

The target in assay [1] is type 2 ryanodine receptor (Mus musculus, UniProt E9Q401). Kind of assay: type 2 ryanodine receptor activity inhibitory effect: endoplasmic reticulum Ca2+ (R-CEPIA1er fluorescence) in RyR-expressing HEK293 cells. Conditions: final concentration 10^-9 to 10^-4 M; Hill equation fit; ER Ca2+ fluorescence in HEK293 cells. Format: cell-based. The protocol:
The EC50 value of each of the compounds shown in Table 13 with respect to the type 2 ryanodine receptor activity inhibitory effect, was measured in accordance with the following procedure.
cDNA of RyR2 was cloned from the heart muscle of a mouse by a PCR method and introduced into an expression vector (pcDNA5/FRT/TO) for Flp-In T-REX having hygromycin resistance. The vector is a tetracycline-inducible expression (Tet-On) vector and induces expression of RyR in the presence of doxycycline.
Also, R-CEPIA1er described in Nat. Commun., 2014, 5: 4153 was introduced into a neomycin resistant expression vector, pCMV/myc/ER. This vector constantly expresses R-CEPIA1er.
As HEK293 cells, Flp-In T-REX 293 cells corresponding to the Tet-On inducible system were prepared. The cells were cultured in a CO2 incubator at 37° C.
A pathogenic mutant-type RyR gene was introduced into Flp-In T-REX 293 cells by a lipofection method. The cells were cultured in a medium containing hygromycin for 10 to 14 days to establish a pathogenic mutant RyR stably expressing strain. Into the pathogenic mutant RyR stably expressing strain, an R-CEPIA1er expression vector was introduced by a lipofection method. The strain was cultured in a medium containing G418 to establish a stable dual expression strain expressing a pathogenic mutant-type RyR gene and R-CEPIA1er.
A wild-type RyR gene was introduced into Flp-In T-REX 293 cells by a lipofection method. The cells were cultured in a medium containing hygromycin for 10 to 14 days to establish a RyR stably expressing strain. Into the RyR stably expressing strain, an R-CEPIA1er expression vector was introduced by a lipofection method. The strain was cultured in a medium containing G418 to establish a stable dual expression strain expressing a wild-type RyR gene and R-CEPIA1er.
The cultured cells expressing a pathogenic mutant RyR and R-CEPIA1er and the cultured cells expressing wild type RyR and R-CEPIA1er were separately cultured in plastic dishes at 37° C. for 24 hours. Then, the medium was exchanged with a medium containing doxycycline and the cells were further cultured for 24 hours. Fluorescence measurement was carried out by use of FlexStation. R-CEPIA1er was excited at 560 nm to acquire fluorescence at 610 nm. Fluorescence was acquired every 10 seconds for 300 seconds. The compounds shown in Table 13 each were added 60 seconds after initiation, and Ca^2+ concentration in the fluorescent endoplasmic reticulum was measured.
Inhibitory effects of the compounds on type 2 ryanodine receptor activity shown in Table 13 each were measured in the range of a final concentration of 10^−9 to 10^−4 M by the methods above. Based on the measurement results, a dose-response curve approximating the Hill equation was obtained by the least squares method. In this manner, EC50 values were calculated.

In assay [2] the test system is mouse having RyR2 I4093V mutation. Kind of assay: electrocardiogram of RyR2 mutation-harboring mouse before and after intraperitoneal administration. Format: in vivo. As to conditions: for occurrence of arrhythmia (ratio of time when arrhythmia occurs): 5-15 minutes after administration, FIG. 2. From the text:
In Riken BRC, male mice administered with N-ethyl-N-nitrosourea (ENU) were crossed with normal wild type females to obtain child mice (First generation: G1). These G1 mice were subjected to systematic phenotypic screening. […] As a result, a mouse having RyR2 I4093V mutation (RyR2 c.12277A>G (NM_023868.2) p.I4093V (NP_076357.2)) was found. The mouse was backcrossed with a normal wild type mouse (8 generations or more). As a result, mice conceivably having a mutation of RyR2 I4093V alone were obtained.
Compound 57 shown in Table 10 was dissolved in saline (0.9% aqueous NaCl solution) to prepare a 0.03-0.1 mg/mL solution containing compound 57. • (3) Measurement of Electrocardiogram of RyR2 Mutation-Harboring Mouse and Administration of Drug
The aforementioned mutant mice of 4-5 months old were subjected to anesthesia induction with 2% isoflurane. While maintaining the anesthetic state with 1% isoflurane, electrodes for electrocardiogram were attached to four limbs and electrocardiographical monitoring was continuously carried out. Before drug administration, electrocardiographical monitoring was carried out for 10 minutes. Then, the solution containing compound 57 prepared above was intraperitoneally injected so as to have a concentration of 0.3 mg/kg or 1 mg/kg. The electrocardiogram was recorded for further 15 minutes.
The time during which successive bigeminal pulse, trigeminal pulse or ventricular tachycardia (regarded as arrhythmia) occurred during 5-15 minutes after administration of compound 57, were summed up per individual and the ratio of time when arrhythmia occurs was obtained.

Chain of type 2 ryanodine receptor (E9Q401 whole entry): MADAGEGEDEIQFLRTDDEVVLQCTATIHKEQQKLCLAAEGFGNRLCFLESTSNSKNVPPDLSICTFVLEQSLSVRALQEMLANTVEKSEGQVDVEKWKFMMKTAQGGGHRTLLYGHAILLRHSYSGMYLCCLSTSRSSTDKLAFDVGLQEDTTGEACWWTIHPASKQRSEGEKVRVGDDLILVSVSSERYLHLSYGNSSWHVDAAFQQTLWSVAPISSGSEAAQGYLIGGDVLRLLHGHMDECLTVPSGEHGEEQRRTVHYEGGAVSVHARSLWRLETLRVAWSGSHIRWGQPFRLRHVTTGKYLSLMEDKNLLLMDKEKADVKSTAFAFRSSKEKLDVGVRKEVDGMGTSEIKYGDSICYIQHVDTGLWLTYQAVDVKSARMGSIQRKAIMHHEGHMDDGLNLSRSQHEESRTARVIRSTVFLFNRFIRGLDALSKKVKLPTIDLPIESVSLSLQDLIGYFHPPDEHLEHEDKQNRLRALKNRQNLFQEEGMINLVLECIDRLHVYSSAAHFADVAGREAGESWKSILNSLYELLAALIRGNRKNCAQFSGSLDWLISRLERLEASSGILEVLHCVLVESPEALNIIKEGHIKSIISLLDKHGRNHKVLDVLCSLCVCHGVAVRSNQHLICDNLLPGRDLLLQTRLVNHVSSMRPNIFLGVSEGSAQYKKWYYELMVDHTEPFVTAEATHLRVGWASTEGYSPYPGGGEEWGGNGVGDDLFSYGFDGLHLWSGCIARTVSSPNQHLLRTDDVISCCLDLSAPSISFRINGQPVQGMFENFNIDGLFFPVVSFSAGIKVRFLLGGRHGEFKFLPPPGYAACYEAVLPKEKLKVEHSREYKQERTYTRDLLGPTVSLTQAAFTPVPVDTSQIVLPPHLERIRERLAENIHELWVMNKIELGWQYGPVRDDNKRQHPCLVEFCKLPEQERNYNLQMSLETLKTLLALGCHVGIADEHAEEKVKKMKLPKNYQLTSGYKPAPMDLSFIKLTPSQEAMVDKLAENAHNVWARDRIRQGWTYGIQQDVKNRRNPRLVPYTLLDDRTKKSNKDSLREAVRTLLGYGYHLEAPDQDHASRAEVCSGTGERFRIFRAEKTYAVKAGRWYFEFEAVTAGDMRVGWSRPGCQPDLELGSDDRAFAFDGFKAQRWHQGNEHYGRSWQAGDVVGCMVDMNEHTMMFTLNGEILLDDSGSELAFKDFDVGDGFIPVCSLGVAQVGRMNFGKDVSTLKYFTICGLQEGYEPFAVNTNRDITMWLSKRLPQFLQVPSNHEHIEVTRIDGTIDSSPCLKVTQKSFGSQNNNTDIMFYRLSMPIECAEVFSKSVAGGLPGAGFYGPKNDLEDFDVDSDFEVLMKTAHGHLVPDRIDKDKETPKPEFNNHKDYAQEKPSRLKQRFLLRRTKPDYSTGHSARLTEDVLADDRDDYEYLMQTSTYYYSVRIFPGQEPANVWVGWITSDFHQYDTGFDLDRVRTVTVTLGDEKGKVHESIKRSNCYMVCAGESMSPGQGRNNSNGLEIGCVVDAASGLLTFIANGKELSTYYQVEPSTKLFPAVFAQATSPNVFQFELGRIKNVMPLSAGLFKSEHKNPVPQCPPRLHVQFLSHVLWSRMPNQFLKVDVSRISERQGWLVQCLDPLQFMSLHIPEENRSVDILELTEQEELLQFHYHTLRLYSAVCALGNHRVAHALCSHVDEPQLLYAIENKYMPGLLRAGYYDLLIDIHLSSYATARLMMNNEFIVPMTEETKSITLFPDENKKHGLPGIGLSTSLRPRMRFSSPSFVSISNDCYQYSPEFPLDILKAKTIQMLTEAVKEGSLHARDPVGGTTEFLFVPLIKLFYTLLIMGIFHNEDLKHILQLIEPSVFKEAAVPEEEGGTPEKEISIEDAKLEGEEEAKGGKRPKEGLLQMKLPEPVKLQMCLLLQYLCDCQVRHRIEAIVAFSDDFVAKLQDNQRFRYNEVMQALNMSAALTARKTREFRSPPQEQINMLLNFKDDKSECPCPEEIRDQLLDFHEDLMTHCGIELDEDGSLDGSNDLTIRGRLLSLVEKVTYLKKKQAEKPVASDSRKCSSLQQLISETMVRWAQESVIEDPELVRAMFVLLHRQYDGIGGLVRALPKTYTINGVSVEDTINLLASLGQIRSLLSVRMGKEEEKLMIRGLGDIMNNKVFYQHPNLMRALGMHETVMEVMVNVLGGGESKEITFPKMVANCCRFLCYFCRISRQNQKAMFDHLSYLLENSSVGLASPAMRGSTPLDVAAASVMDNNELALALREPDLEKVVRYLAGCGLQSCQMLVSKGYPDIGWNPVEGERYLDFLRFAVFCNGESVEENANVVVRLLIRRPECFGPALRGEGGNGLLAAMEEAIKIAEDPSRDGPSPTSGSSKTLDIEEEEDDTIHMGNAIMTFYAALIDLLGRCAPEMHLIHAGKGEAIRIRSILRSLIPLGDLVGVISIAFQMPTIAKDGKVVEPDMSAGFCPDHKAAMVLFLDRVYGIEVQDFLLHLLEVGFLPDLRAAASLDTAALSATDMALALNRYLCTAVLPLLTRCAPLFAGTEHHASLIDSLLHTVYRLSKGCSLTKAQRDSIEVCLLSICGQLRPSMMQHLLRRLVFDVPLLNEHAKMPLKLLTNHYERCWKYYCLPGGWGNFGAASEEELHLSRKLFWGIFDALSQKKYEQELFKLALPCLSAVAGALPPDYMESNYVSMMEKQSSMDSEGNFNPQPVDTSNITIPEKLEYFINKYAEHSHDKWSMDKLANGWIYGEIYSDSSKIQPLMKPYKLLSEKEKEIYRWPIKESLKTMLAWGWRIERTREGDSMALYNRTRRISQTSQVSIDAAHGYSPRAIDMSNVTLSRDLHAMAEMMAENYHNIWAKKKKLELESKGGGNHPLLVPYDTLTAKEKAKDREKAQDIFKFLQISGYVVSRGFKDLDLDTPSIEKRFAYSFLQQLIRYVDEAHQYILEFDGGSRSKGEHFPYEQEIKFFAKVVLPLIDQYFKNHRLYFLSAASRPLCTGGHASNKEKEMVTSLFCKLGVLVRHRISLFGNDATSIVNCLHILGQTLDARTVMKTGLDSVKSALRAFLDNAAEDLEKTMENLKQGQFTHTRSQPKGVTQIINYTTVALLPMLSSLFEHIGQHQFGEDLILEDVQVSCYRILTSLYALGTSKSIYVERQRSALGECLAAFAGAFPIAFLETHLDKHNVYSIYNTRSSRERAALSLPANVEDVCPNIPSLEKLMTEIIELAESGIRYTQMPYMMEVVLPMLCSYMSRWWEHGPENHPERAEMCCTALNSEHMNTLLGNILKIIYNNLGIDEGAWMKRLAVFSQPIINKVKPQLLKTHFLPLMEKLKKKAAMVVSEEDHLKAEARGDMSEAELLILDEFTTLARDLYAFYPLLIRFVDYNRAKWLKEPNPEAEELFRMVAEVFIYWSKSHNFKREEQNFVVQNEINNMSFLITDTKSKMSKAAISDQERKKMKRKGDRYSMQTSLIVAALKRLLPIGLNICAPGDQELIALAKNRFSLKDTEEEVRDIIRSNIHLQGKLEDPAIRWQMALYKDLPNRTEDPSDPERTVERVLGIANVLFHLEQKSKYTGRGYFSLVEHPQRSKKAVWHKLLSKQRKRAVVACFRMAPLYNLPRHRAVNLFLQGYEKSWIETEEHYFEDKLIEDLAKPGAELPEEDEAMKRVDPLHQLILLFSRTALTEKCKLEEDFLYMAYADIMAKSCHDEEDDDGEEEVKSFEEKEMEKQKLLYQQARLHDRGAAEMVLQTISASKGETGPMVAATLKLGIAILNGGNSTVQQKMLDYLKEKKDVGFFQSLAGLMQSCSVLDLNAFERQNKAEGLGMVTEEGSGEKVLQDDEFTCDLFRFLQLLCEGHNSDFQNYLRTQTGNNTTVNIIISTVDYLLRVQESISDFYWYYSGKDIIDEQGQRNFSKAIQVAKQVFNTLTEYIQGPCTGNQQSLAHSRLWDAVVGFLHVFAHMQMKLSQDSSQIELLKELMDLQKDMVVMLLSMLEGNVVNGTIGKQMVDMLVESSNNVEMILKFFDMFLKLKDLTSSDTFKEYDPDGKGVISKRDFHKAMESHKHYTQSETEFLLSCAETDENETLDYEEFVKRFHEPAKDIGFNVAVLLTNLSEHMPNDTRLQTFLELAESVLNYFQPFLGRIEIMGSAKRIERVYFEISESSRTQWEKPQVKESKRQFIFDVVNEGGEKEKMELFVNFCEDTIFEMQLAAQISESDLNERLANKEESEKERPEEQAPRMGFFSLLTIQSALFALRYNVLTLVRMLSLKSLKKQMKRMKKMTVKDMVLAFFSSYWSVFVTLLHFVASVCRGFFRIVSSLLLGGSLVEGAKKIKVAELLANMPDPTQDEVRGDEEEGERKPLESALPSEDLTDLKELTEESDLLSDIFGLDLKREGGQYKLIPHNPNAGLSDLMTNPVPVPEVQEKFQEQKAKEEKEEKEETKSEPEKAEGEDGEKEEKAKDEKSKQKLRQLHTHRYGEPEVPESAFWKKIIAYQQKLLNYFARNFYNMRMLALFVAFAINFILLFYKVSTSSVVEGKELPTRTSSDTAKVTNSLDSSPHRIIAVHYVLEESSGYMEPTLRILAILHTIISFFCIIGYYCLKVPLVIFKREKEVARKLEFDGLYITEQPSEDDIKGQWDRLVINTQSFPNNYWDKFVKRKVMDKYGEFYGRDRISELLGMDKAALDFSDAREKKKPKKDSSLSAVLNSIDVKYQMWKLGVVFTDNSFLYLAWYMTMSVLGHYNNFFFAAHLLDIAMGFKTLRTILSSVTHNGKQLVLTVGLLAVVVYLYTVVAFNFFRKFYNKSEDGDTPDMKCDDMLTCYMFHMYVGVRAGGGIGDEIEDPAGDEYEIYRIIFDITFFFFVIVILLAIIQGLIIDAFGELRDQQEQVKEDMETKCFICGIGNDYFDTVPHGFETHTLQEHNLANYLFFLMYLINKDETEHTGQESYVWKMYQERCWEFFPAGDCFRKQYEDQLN

For `CN(C(=O)Cn1nnc(-c2ccccc2)n1)c1ccccc1` [Compound 35], it took 676 nM to reach a half-maximal effect in assay [1] (EC50).

As to `Cc1cccc(N(C)C(=O)Cn2nnc(-c3ccccc3)n2)c1` [Compound 37], in assay [1], it took 606 nM to reach a half-maximal effect (EC50).

With `Cc1ccc(N(C)C(=O)Cn2nnc(-c3ccccc3)n2)cc1` [Compound 38], the EC50 (in general, the concentration giving half of the maximal effect) in assay [1] was found to be 2770 nM.

In assay [1], `COc1cccc(N(C)C(=O)Cn2nnc(-c3ccccc3)n2)c1` [Compound 40] displayed an EC50 of 8310 nM.

As for `COc1ccc(N(C)C(=O)Cn2nnc(-c3ccccc3)n2)cc1` [Compound 41], in assay [1], the EC50 amounted to 154 nM.

In assay [1], `COc1ccccc1-c1nnn(CC(=O)N(C)c2ccccc2)n1` [Compound 45] gave an EC50 of 3370 nM.

On to `COc1cccc(-c2nnn(CC(=O)N(C)c3ccccc3)n2)c1` [Compound 46], for which, in assay [1], the EC50 amounted to 147 nM.

For `COc1ccc(-c2nnn(CC(=O)N(C)c3ccccc3)n2)cc1` [Compound 47], the EC50 in assay [1] came out at 1250 nM.

Compound `COc1ccc(N(C)C(=O)Cn2nnc(-c3cccc(OC)c3)n2)cc1` [Compound 48] had an EC50 in assay [1] of 43 nM.

Compound `COc1cccc(-c2nnn(CC(=O)N(C)c3ccc(F)cc3)n2)c1` [Compound 49] yielded an EC50 in assay [1] of 44 nM.

For the compound `COc1ccc(N(C)C(=O)Cn2nnc(-c3cccc(F)c3)n2)cc1` [Compound 50], the EC50 in assay [1] came out at 36 nM.

Compound `CN(C(=O)Cn1nnc(-c2cccc(F)c2)n1)c1ccc(F)cc1` [Compound 51] had an EC50 in assay [1] of 49 nM.

Compound `COc1cccc(-c2nnn(CC(=O)N(C)c3ccc(F)c(OC)c3)n2)c1` [Compound 53] yielded an EC50 in assay [1] of 51 nM.

As for `COc1cccc(-c2nnn(CC(=O)N(C)c3ccc4c(c3)OCO4)n2)c1` [Compound 54], in assay [1], the EC50 worked out at 48 nM.

On to `CN(C(=O)Cn1nnc(-c2cc(F)cc(F)c2)n1)c1ccc(F)cc1` [Compound 57], for which the “occurrence of arrhythmia (ratio of time when arrhythmia occurs)” value in assay [2] (0.3 mg/kg intraperitoneal) and in assay [2] (1 mg/kg intraperitoneal) was “low” in each case. Also, the “ECG (bidirectional ventricular tachycardia before administration)” value in assay [2] (0.3 mg/kg intraperitoneal, RyR2 I4093V mice, FIG. 1) is “went back to normal”. This compound also displayed an EC50 in assay [1] of 15 nM.

Take `CCN(C(=O)Cn1nnc(-c2ccccc2)n1)c1ccccc1` [Compound 58]: it took 5460 nM to reach a half-maximal effect in assay [1] (EC50).

As to `CCN(C(=O)Cn1nnc(-c2ccccc2)n1)c1ccc(OC)cc1` [Compound 59], in assay [1], the EC50 was determined as 1360 nM.

In assay [1], `CCN(C(=O)Cn1nnc(-c2ccccc2)n1)c1ccc(F)cc1` [Compound 60] had an EC50 of 768 nM.

Regarding `CCN(C(=O)Cn1nnc(-c2ccccc2)n1)c1ccc(OC(F)(F)F)cc1` [Compound 61], a half-maximal effect in assay [1] (EC50) was put at 44200 nM.

Regarding `CCN(C(=O)Cn1nnc(-c2ccc(OC)cc2)n1)c1ccc(OC)cc1` [Compound 62], in assay [1], the EC50 was 2680 nM.

Take `CCN(C(=O)Cn1nnc(-c2ccc(OC(F)(F)F)cc2)n1)c1ccc(F)cc1` [Compound 63]: a half-maximal effect in assay [1] (EC50) was put at 1050 nM.

With `CCCN(C(=O)Cn1nnc(-c2ccccc2)n1)c1ccccc1` [Compound 66], the half-maximal effective concentration (EC50) in assay [1] was 39500 nM.

`COc1ccc(N(C)C(=S)Cn2nnc(-c3cccc(OC)c3)n2)cc1` [Compound 67] registered an EC50 in assay [1] of 41 nM.

The compound `COc1cccc(-c2nnn(CC(=S)N(C)c3ccc(F)cc3)n2)c1` [Compound 68] showed an EC50 in assay [1] of 31 nM.

Consider `COc1ccc(N(C)C(=S)Cn2nnc(-c3cccc(F)c3)n2)cc1` [Compound 69], for which, in assay [1], the EC50 is 39 nM.

Regarding `CN(C(=S)Cn1nnc(-c2cccc(F)c2)n1)c1ccc(F)cc1` [Compound 70], it took 33 nM to reach a half-maximal effect in assay [1] (EC50).
